Patent publication US12077503B2, “Substituted cyclic amides and their use as herbicides” (FMC CORPORATION, priority 2015, dated 2024)
Where two headings read alike, the source gives them in different places.

Tests used:
Experiment in all cases: Test A preemergence
Assay type in all cases: in vivo
Kochia (Kochia scoparia) = conditions: Bassia scoparia, pre-emergence, 240 h; for pest or weed control at 125 g/ha: 125 g ai/ha; for pest or weed control at 500 g/ha: 500 g ai/ha
Outline: (§1)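 Each rating is a visual injury score from 0 to 100 given about 10 d after treatment, judged against untreated controls kept alongside in the greenhouse. In loam soil–sand blend, seeds got a preemergence directed soil spray, while postemergence plants were 2 to 10 cm tall at spraying.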

[1] = test system: barnyardgrass (Echinochloa crus-galli); conditions: Echinochloa crus-galli, pre-emergence, 240 h; for pest or weed control at 125 g/ha: 125 g ai/ha; for pest or weed control at 500 g/ha: 500 g ai/ha
Outline: as §1

[2] = test system: giant foxtail (Setaria faberii); conditions: Setaria faberi, pre-emergence, 240 h; for pest or weed control at 125 g/ha: 125 g ai/ha; for pest or weed control at 500 g/ha: 500 g ai/ha
Outline: as §1

[3] = test system: ragweed (common ragweed, Ambrosia elatior); conditions: Ambrosia artemisiifolia, pre-emergence, 240 h; for pest or weed control at 125 g/ha: 125 g ai/ha; for pest or weed control at 500 g/ha: 500 g ai/ha
Outline: as §1

[4] = test system: ryegrass, Italian (Italian ryegrass, Lolium multiflorum); conditions: Lolium multiflorum, pre-emergence, 240 h; for pest or weed control at 125 g/ha: 125 g ai/ha; for pest or weed control at 500 g/ha: 500 g ai/ha
Outline: as §1

[5] = Preemergence, visual injury rating after approximately 10 d, read-out: Kochia plant response rating (0 to 100 scale, 0 is no effect, 100 is complete control)
[6] = preemergence, visual injury rating about 10 d after treatment, 0 to 100 scale (0 no effect, 100 complete control), read-out: Kochia plant response rating
[7] = Preemergence, visual injury rating after approximately 10 d, read-out: Barnyardgrass plant response rating (0 to 100 scale, 0 is no effect, 100 is complete control)
[8] = preemergence, visual injury rating about 10 d after treatment, 0 to 100 scale (0 no effect, 100 complete control), read-out: Barnyardgrass plant response rating
[9] = Preemergence, visual injury rating after approximately 10 d, read-out: Foxtail, Giant plant response rating (0 to 100 scale, 0 is no effect, 100 is complete control)
[10] = preemergence, visual injury rating about 10 d after treatment, 0 to 100 scale (0 no effect, 100 complete control), read-out: Foxtail, Giant plant response rating
[11] = Preemergence, visual injury rating after approximately 10 d, read-out: Ragweed plant response rating (0 to 100 scale, 0 is no effect, 100 is complete control)
[12] = preemergence, visual injury rating about 10 d after treatment, 0 to 100 scale (0 no effect, 100 complete control), read-out: Ragweed plant response rating
[13] = Preemergence, visual injury rating after approximately 10 d, read-out: Ryegrass, Italian plant response rating (0 to 100 scale, 0 is no effect, 100 is complete control)
[14] = preemergence, visual injury rating about 10 d after treatment, 0 to 100 scale (0 no effect, 100 complete control), read-out: Ryegrass, Italian plant response rating
[15] = preemergence, 0 to 100 scale where 0 is no effect and 100 is complete control, read-out: Kochia plant response rating
[16] = Preemergence, visual injury vs untreated controls after approximately 10 d, read-out: Kochia plant response rating (0 to 100 scale where 0 is no effect and 100 is complete control)
[17] = preemergence, 0 to 100 scale where 0 is no effect and 100 is complete control, read-out: Barnyardgrass plant response rating
[18] = Preemergence, visual injury vs untreated controls after approximately 10 d, read-out: Barnyardgrass plant response rating (0 to 100 scale where 0 is no effect and 100 is complete control)
[19] = preemergence, 0 to 100 scale where 0 is no effect and 100 is complete control, read-out: Foxtail, Giant plant response rating
[20] = Preemergence, visual injury vs untreated controls after approximately 10 d, read-out: Foxtail, Giant plant response rating (0 to 100 scale where 0 is no effect and 100 is complete control)
[21] = preemergence, 0 to 100 scale where 0 is no effect and 100 is complete control, read-out: Ragweed plant response rating
[22] = Preemergence, visual injury vs untreated controls after approximately 10 d, read-out: Ragweed plant response rating (0 to 100 scale where 0 is no effect and 100 is complete control)
[23] = preemergence, 0 to 100 scale where 0 is no effect and 100 is complete control, read-out: Ryegrass, Italian plant response rating
[24] = Preemergence, visual injury vs untreated controls after approximately 10 d, read-out: Ryegrass, Italian plant response rating (0 to 100 scale where 0 is no effect and 100 is complete control)
[25] = preemergence, 0 to 100 scale where 0 is no effect and 100 is complete control, approx. 10 d, read-out: Kochia plant response rating
[26] = preemergence, 0 to 100 scale where 0 is no effect and 100 is complete control, approx. 10 d, read-out: Barnyardgrass plant response rating
[27] = preemergence, 0 to 100 scale where 0 is no effect and 100 is complete control, approx. 10 d, read-out: Foxtail, Giant plant response rating
[28] = preemergence, 0 to 100 scale where 0 is no effect and 100 is complete control, approx. 10 d, read-out: Ragweed plant response rating
[29] = preemergence, 0 to 100 scale where 0 is no effect and 100 is complete control, approx. 10 d, read-out: Ryegrass, Italian plant response rating

CN1CC[C@H](c2ccc(OC(F)(F)F)cc2)[C@@H](C(=O)Nc2ccccc2C(F)(F)F)C1=O [Compound 998]
pest or weed control at 125 g/ha (Kochia (Kochia scoparia); [5]): 0%
pest or weed control at 500 g/ha (Kochia (Kochia scoparia); [6]): 0%
pest or weed control at 125 g/ha [1, 7]: 0%
pest or weed control at 500 g/ha [1, 8]: 0%
pest or weed control at 125 g/ha [2, 9]: 0%
pest or weed control at 500 g/ha [2, 10]: 0%
pest or weed control at 125 g/ha [3, 11]: 0%
pest or weed control at 500 g/ha [3, 12]: 0%
pest or weed control at 125 g/ha [4, 13]: 0%
pest or weed control at 500 g/ha [4, 14]: 0%

CN1C[C@H](c2cc(F)cc(F)c2)[C@@H](C(=O)Nc2ccc(C(F)(F)F)cn2)C1=O [Compound 869]
pest or weed control at 125 g/ha (Kochia (Kochia scoparia); [15]): 0%
pest or weed control at 500 g/ha (Kochia (Kochia scoparia); [16]): 0%
pest or weed control at 125 g/ha [1, 17]: 60%
pest or weed control at 500 g/ha [1, 18]: 90%
pest or weed control at 125 g/ha [2, 19]: 90%
pest or weed control at 500 g/ha [2, 20]: 90%
pest or weed control at 125 g/ha [3, 21]: 0%
pest or weed control at 500 g/ha [3, 22]: 0%
pest or weed control at 125 g/ha [4, 23]: 0%
pest or weed control at 500 g/ha [4, 24]: 0%

Cc1ccc([C@H]2CN(C)C(=O)[C@@H]2C(=O)Nc2cccc(F)c2F)cc1Cl [Compound 1013]
pest or weed control at 125 g/ha (Kochia (Kochia scoparia); [5]): 50%
pest or weed control at 500 g/ha (Kochia (Kochia scoparia); [6]): 70%
pest or weed control at 125 g/ha [1, 7]: 90%
pest or weed control at 500 g/ha [1, 8]: 90%
pest or weed control at 125 g/ha [2, 9]: 90%
pest or weed control at 500 g/ha [2, 10]: 90%
pest or weed control at 125 g/ha [3, 11]: 0%
pest or weed control at 500 g/ha [3, 12]: 0%
pest or weed control at 125 g/ha [4, 13]: 30%
pest or weed control at 500 g/ha [4, 14]: 70%

CN1C[C@H](c2ccc(F)c(F)c2)[C@@H](C(=S)Nc2ccccc2F)C1=O (racemic) [Compound 1153]
pest or weed control at 125 g/ha (Kochia (Kochia scoparia); [25]): 60%
pest or weed control at 500 g/ha (Kochia (Kochia scoparia); [15]): 70%
pest or weed control at 125 g/ha [1, 26]: 80%
pest or weed control at 500 g/ha [1, 17]: 90%
pest or weed control at 125 g/ha [2, 27]: 90%
pest or weed control at 500 g/ha [2, 19]: 90%
pest or weed control at 125 g/ha [3, 28]: 0%
pest or weed control at 500 g/ha [3, 21]: 0%
pest or weed control at 125 g/ha [4, 29]: 30%
pest or weed control at 500 g/ha [4, 23]: 50%

CN1C[C@H](c2cc(F)cc(F)c2)[C@@H](C(=O)Nc2cnccc2Cl)C1=O [Compound 1096]
pest or weed control at 125 g/ha (Kochia (Kochia scoparia); [25]): 0%
pest or weed control at 500 g/ha (Kochia (Kochia scoparia); [6]): 0%
pest or weed control at 125 g/ha [1, 26]: 0%
pest or weed control at 500 g/ha [1, 8]: 0%
pest or weed control at 125 g/ha [2, 27]: 0%
pest or weed control at 500 g/ha [2, 10]: 0%
pest or weed control at 125 g/ha [3, 28]: 0%
pest or weed control at 500 g/ha [3, 12]: 0%
pest or weed control at 125 g/ha [4, 29]: 0%
pest or weed control at 500 g/ha [4, 14]: 0%

CC(C)Oc1ccc([C@H]2CN(C)C(=O)[C@@H]2C(=O)Nc2ccc(F)cc2F)cc1 [Compound 954]
pest or weed control at 125 g/ha (Kochia (Kochia scoparia); [5]): 0%
pest or weed control at 500 g/ha (Kochia (Kochia scoparia); [6]): 20%
pest or weed control at 125 g/ha [1, 7]: 70%
pest or weed control at 500 g/ha [1, 8]: 90%
pest or weed control at 125 g/ha [2, 9]: 90%
pest or weed control at 500 g/ha [2, 10]: 90%
pest or weed control at 125 g/ha [3, 11]: 0%
pest or weed control at 500 g/ha [3, 12]: 0%
pest or weed control at 125 g/ha [4, 13]: 0%
pest or weed control at 500 g/ha [4, 14]: 0%

Cc1ccc([C@H]2CNC(=O)[C@@H]2C(=O)Nc2cccc(F)c2F)cc1C [Compound 1034]
pest or weed control at 125 g/ha (Kochia (Kochia scoparia); [5]): 60%
pest or weed control at 500 g/ha (Kochia (Kochia scoparia); [6]): 70%
pest or weed control at 125 g/ha [1, 7]: 90%
pest or weed control at 500 g/ha [1, 8]: 90%
pest or weed control at 125 g/ha [2, 9]: 80%
pest or weed control at 500 g/ha [2, 10]: 90%
pest or weed control at 125 g/ha [3, 11]: 30%
pest or weed control at 500 g/ha [3, 12]: 90%
pest or weed control at 125 g/ha [4, 13]: 20%
pest or weed control at 500 g/ha [4, 14]: 60%

CN1C[C@H](c2cc(F)c(F)c(F)c2)[C@@H](C(=O)Nc2cccc(F)c2F)C1=O [Compound 879]
pest or weed control at 125 g/ha (Kochia (Kochia scoparia); [15]): 80%
pest or weed control at 500 g/ha (Kochia (Kochia scoparia); [16]): 90%
pest or weed control at 125 g/ha [1, 17]: 100%
pest or weed control at 500 g/ha [1, 18]: 100%
pest or weed control at 125 g/ha [2, 19]: 100%
pest or weed control at 500 g/ha [2, 20]: 100%
pest or weed control at 125 g/ha [3, 21]: 50%
pest or weed control at 500 g/ha [3, 22]: 90%
pest or weed control at 125 g/ha [4, 23]: 60%
pest or weed control at 500 g/ha [4, 24]: 90%

COc1cc([C@H]2CN(C)C(=O)[C@@H]2C(=O)Nc2ccccc2F)cc(C(F)(F)F)c1 [Compound 855]
pest or weed control at 125 g/ha (Kochia (Kochia scoparia); [15]): 20%
pest or weed control at 500 g/ha (Kochia (Kochia scoparia); [16]): 30%
pest or weed control at 125 g/ha [1, 17]: 90%
pest or weed control at 500 g/ha [1, 18]: 100%
pest or weed control at 125 g/ha [2, 19]: 90%
pest or weed control at 500 g/ha [2, 20]: 90%
pest or weed control at 125 g/ha [3, 21]: 0%
pest or weed control at 500 g/ha [3, 22]: 0%
pest or weed control at 125 g/ha [4, 23]: 0%
pest or weed control at 500 g/ha [4, 24]: 30%

COc1c(F)ccc([C@H]2CNC(=O)[C@@H]2C(=O)Nc2ccc(F)cc2F)c1Cl [Compound 883]
pest or weed control at 125 g/ha (Kochia (Kochia scoparia); [15]): 30%
pest or weed control at 500 g/ha (Kochia (Kochia scoparia); [16]): 60%
pest or weed control at 125 g/ha [1, 17]: 90%
pest or weed control at 500 g/ha [1, 18]: 90%
pest or weed control at 125 g/ha [2, 19]: 60%
pest or weed control at 500 g/ha [2, 20]: 90%
pest or weed control at 125 g/ha [3, 21]: 0%
pest or weed control at 500 g/ha [3, 22]: 0%
pest or weed control at 125 g/ha [4, 23]: 0%
pest or weed control at 500 g/ha [4, 24]: 20%

CCOc1cccc([C@H]2CN(C)C(=O)[C@@H]2C(=O)Nc2cccc(F)c2F)c1 [Compound 956]
pest or weed control at 125 g/ha (Kochia (Kochia scoparia); [5]): 90%
pest or weed control at 500 g/ha (Kochia (Kochia scoparia); [6]): 90%
pest or weed control at 125 g/ha [1, 7]: 100%
pest or weed control at 500 g/ha [1, 8]: 100%
pest or weed control at 125 g/ha [2, 9]: 100%
pest or weed control at 500 g/ha [2, 10]: 100%
pest or weed control at 125 g/ha [3, 11]: 20%
pest or weed control at 500 g/ha [3, 12]: 80%
pest or weed control at 125 g/ha [4, 13]: 40%
pest or weed control at 500 g/ha [4, 14]: 90%
